In patent publication US11897865B2, “ABHD12 inhibitors and methods of making and using same” (THE SCRIPPS RESEARCH INSTITUTE, priority 2018, dated 2024):

biological target: T1, ABHD12 (Mus musculus, UniProt Q99LR1); experiment: Gel-based competitive ABPP, JJH350 probe vs brain membrane proteome; type: biochemical; conditions: 10 μM compound, read-out: % Inhibition @ 10 μM (ABPP gel_JJH350 probe vs brain mem)
T1 construct: from tissue; host or cells: brain membrane proteome
T1 sequence (Q99LR1 1-398): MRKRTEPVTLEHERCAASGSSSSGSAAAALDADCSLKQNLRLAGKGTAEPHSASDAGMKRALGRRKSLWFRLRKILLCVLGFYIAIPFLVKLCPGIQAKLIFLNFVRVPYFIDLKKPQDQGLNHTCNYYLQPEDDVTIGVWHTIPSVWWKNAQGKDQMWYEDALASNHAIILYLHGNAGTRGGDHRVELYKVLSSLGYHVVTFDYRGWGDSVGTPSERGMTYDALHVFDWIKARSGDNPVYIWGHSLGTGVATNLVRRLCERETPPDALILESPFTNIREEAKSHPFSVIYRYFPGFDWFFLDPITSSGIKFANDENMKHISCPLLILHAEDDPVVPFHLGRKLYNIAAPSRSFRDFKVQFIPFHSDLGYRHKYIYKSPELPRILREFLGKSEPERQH
Procedure: Gel-Based Competitive ABPP for In Vitro Inhibitor Treatment of Proteomes:
Gel-based ABPP assays were performed as previously reported (Bachovchin, D. A. et al. Superfamily-wide portrait of serine hydrolase inhibition achieved by library-versus-library screening. Proc. Natl. Acad. Sci. U. S. A. 2010, 107, 20941-20946). Cell or tissue proteomes (50 μL, 1 mg/mL) were treated with either FP-Rh (1 μM final concentration) or JJH350 (2 μM final concentration) for 45 min at 37° C. For FP-Rh labeled samples, the reactions were quenched by adding 20 μL of 4× SDS-PAGE loading buffer. The 30 μL of the quenched samples were loaded on gel for analysis. For (S)-1,3-dioxo-7-(4-phenoxybenzoyl)hexahydroimidazo[1,5-a]pyrazin-2(3H)-yl 4-(4-(prop-2-yn-1-yloxy)phenyl)piperazine-1-carboxylate (JJH350)-labeled samples, copper-catalyzed azide-alkyne cycloaddition (CuAAC) was used for visualizing the labeled proteins following the reported protocol. Briefly, rhodamine-PEG3-N3 (1 μL/reaction, 1.25 mM in DMSO), CuSO4 (1 μL/reaction, 50 mM in H2O), TBTA (3 μL/reaction, 1.7 mM in DMSO/t-BuOH [1:4, v/v]) and tris(2-carboxyethyi)phosphine (TCEP) (1 μL/reaction, 50 mM in H2O, freshly prepared) were premixed. 6 μL of this click reagent mixture was immediately added to each JJH350-labeled samples (50 μL, 1 mg/mL) and incubated for 1 h at room temperature. The reactions were quenched by adding 20 μL of 4× SDS-PAGE loading buffer. The 40 μL of the quenched samples were loaded on a gel for analysis.
After separation by SDS-PAGE (10% acrylamide), samples were visualized by in-gel fluorescence scanning using the ChemiDoc MP system (Bio-Rad). Band intensities were quantified using the Image Lab (5.2.1) software (Bio-Rad).

Compound | inhibition at 10 µM [%]
FC(F)(F)Oc1ccc(Oc2ccnc(N3CCC(NC(=S)Nc4cccnc4)CC3)c2)c(Cl)c1 [Example 55, 1-(1-(4-(2-Chloro-4-(trifluoromethoxy)phenoxy)pyridin-2-yl)piperidin-4-yl)-3-(pyridin-3-yl)thiourea] | ≥ 75
Fc1cc(Oc2ccnc(N3CCC(NC(=S)Nc4cccnc4)CC3)c2)ccc1OC(F)(F)F [Example 56, 1-(1-(4-(3-Fluoro-4-(trifluoromethoxy)phenoxy)pyridin-2-yl)piperidin-4-yl)-3-(pyridin-3-yl)thiourea] | ≥ 75
Fc1ccc(OC(F)(F)F)cc1Oc1ccnc(N2CCC(NC(=S)Nc3cccnc3)CC2)c1 [Example 58, 1-(1-(4-(2-Fluoro-5-(trifluoromethoxy)phenoxy)pyridin-2-yl)piperidin-4-yl)-3-(pyridin-3-yl)thiourea] | ≥ 75
FC(F)(F)Oc1ccc(Oc2cc(N3CCC(NC(=S)Nc4cccnc4)CC3)nc(C(F)(F)F)c2)cc1 [Example 60, 1-(Pyridin-3-yl)-3-(1-(4-(4-(trifluoromethoxy)phenoxy)-6-(trifluoromethyl)pyridin-2-yl)piperidin-4-yl)thiourea] | 0 to 25
O=C(Nc1cccnc1)NC1CCN(c2ncc(C(F)(F)F)cc2Cl)CC1 [Example 77, 1-(1-(3-Chloro-5-(trifluoromethyl)pyridin-2-yl)piperidin-4-yl)-3-(pyridin-3-yl)urea] | 25 to 50
FC(F)(F)c1cnc(N2CCC(NC(=S)Nc3cccnc3)CC2)nc1 [Example 78, 1-(Pyridin-3-yl)-3-(1-(5-(trifluoromethyl)pyrimidin-2-yl)piperidin-4-yl)thiourea] | 50 to 75
FC(F)(F)c1cnc(N2CCCC(NC(=S)Nc3cccnc3)CC2)c(Cl)c1 (stereo not shown) [Example 80, 1-(1-(3-Chloro-5-(trifluoromethyl)pyridin-2-yl)azepan-4-yl)-3-(pyridin-3-yl)thiourea] | 50 to 75
FC(F)(F)c1cnc(NCCCCCNC(=S)Nc2cccnc2)c(Cl)c1 [Example 81, 1-(5-((3-Chloro-5-(trifluoromethyl)pyridin-2-yl)amino)pentyl)-3-(pyridin-3-yl)thiourea] | ≥ 75
CN(C(=S)Nc1cccnc1)C1CCN(c2ncc(C(F)(F)F)cc2Cl)CC1 [Example 82, 1-(1-(3-Chloro-5-(trifluoromethyl)pyridin-2-yl)piperidin-4-yl)-1-methyl-3-(pyridin-3-yl)thiourea] | 50 to 75
FC(F)(F)c1cnc(NCCCCNC(=S)Nc2cccnc2)c(Cl)c1 [Example 83, 1-(4-((3-Chloro-5-(trifluoromethyl)pyridin-2-yl)amino)butyl)-3-(pyridin-3-yl)thiourea] | 25 to 50
FC(F)(F)c1cnc(NCCCCCCNC(=S)Nc2cccnc2)c(Cl)c1 [Example 84, 1-(6-((3-Chloro-5-(trifluoromethyl)pyridin-2-yl)amino)hexyl)-3-(pyridin-3-yl)thiourea] | 50 to 75
FC(F)(F)c1cnc(N2[C@@H]3CC[C@H]2CC(NC(=S)Nc2cccnc2)C3)c(Cl)c1 (stereo partly drawn) [Example 85, 1-((1R,5S)-8-(3-Chloro-5-(trifluoromethyl)pyridin-2-yl)-8-azabicyclo[3.2.1]octan-3-yl)-3-(pyridin-3-yl)thiourea] | 50 to 75

Next, values leading:

inhibition at 10 µM [%] | Compound
≥ 75 | FC(F)(F)Oc1cccc(Oc2ccnc(N3CCC(NC(=S)Nc4cccnc4)CC3)c2)c1 [Example 49, 1-(Pyridin-3-yl)-3-(1-(4-(3-(trifluoromethoxy)phenoxy)pyridin-2-yl)piperidin-4-yl)thiourea]
≥ 75 | FC(F)(F)Oc1ccccc1Oc1ccnc(N2CCC(NC(=S)Nc3cccnc3)CC2)c1 [Example 50, 1-(Pyridin-3-yl)-3-(1-(4-(2-(trifluoromethoxy)phenoxy)pyridin-2-yl)piperidin-4-yl)thiourea]
≥ 75 | FC(F)(F)c1cccc(Oc2ccnc(N3CCC(NC(=S)Nc4cccnc4)CC3)c2)c1 [Example 52, 1-(Pyridin-3-yl)-3-(1-(4-(3-(trifluoromethyl)phenoxy)pyridin-2-yl)piperidin-4-yl)thiourea]
≥ 75 | FC(F)(F)c1ccccc1Oc1ccnc(N2CCC(NC(=S)Nc3cccnc3)CC2)c1 [Example 53, 1-(Pyridin-3-yl)-3-(1-(4-(2-(trifluoromethyl)phenoxy)pyridin-2-yl)piperidin-4-yl)thiourea]
≥ 75 | CCCCCc1ccc(Oc2ccnc(N3CCC(NC(=S)Nc4cccnc4)CC3)c2)cc1 [Example 61, 1-(1-(4-(4-Pentylphenoxy)pyridin-2-yl)piperidin-4-yl)-3-(pyridin-3-yl)thiourea]
≥ 75 | FC(F)Oc1ccc(Oc2ccnc(N3CCC(NC(=S)Nc4cccnc4)CC3)c2)cc1 [Example 62, 1-(1-(4-(4-(Difluoromethoxy)phenoxy)pyridin-2-yl)piperidin-4-yl)-3-(pyridin-3-yl)thiourea]
25 to 50 | CC(=O)c1ccnc(N2CCC(NC(=S)Nc3cccnc3)CC2)c1 [Example 76, 1-(1-(4-Acetylpyridin-2-yl)piperidin-4-yl)-3-(pyridin-3-yl)thiourea]
0 to 25 | FC(F)(F)c1ccc(N2CCC(NC(=S)Nc3cccnc3)CC2)nn1 [Example 79, 1-(Pyridin-3-yl)-3-(1-(6-(trifluoromethyl)pyridazin-3-yl)piperidin-4-yl)thiourea]

same assay, conditions: read-out: IC50 (ABPP gel_JJH350 probe vs brain mem)

Compound | IC50 [nM]
FC(F)(F)Oc1cc(Oc2ccnc(N3CCC(NC(=S)Nc4cccnc4)CC3)c2Cl)ccc1Cl [Example 63, 1-(1-(3-Chloro-4-(4-chloro-3-(trifluoromethoxy)phenoxy)pyridin-2-yl)piperidin-4-yl)-3-(pyridin-3-yl)thiourea] | ≤ 100
Fc1cc(Oc2ccnc(N3CCC(NC(=S)Nc4cccnc4)CC3)c2Cl)ccc1OC(F)(F)F [Example 64, 1-(1-(3-Chloro-4-(3-fluoro-4-(trifluoromethoxy)phenoxy)pyridin-2-yl)piperidin-4-yl)-3-(pyridin-3-yl)thiourea] | ≤ 100
Fc1ccc(Oc2ccnc(N3CCC(NC(=S)Nc4cccnc4)CC3)c2Cl)cc1OC(F)(F)F [Example 68, 1-(1-(3-Chloro-4-(4-fluoro-3-(trifluoromethoxy)phenoxy)pyridin-2-yl)piperidin-4-yl)-3-(pyridin-3-yl)thiourea] | ≤ 100
Cc1cc(F)ccc1Oc1ccnc(N2CCC(NC(=S)Nc3cccnc3)CC2)c1Cl [Example 69, 1-(1-(3-Chloro-4-(4-fluoro-2-methylphenoxy)pyridin-2-yl)piperidin-4-yl)-3-(pyridin-3-yl)thiourea] | 100 to 1000
Cc1cc(Oc2ccnc(N3CCC(NC(=S)Nc4cccnc4)CC3)c2Cl)ccc1F [Example 70, 1-(1-(3-Chloro-4-(4-fluoro-3-methylphenoxy)pyridin-2-yl)piperidin-4-yl)-3-(pyridin-3-yl)thiourea] | 100 to 1000
Cc1cc(OC(F)(F)F)ccc1Oc1ccnc(N2CCC(NC(=S)Nc3cccnc3)CC2)c1Cl [Example 73, 1-(1-(3-Chloro-4-(2-methyl-4-(trifluoromethoxy)phenoxy)pyridin-2-yl)piperidin-4-yl)-3-(pyridin-3-yl)thiourea] | ≤ 100

Next, values leading:

IC50 [nM] | Compound
1000 to 25000 | Cc1ccc(Oc2ccnc(N3CCC(NC(=S)Nc4cccnc4)CC3)c2)cc1 [Example 75, 1-(Pyridin-3-yl)-3-(1-(4-(p-tolyloxy)pyridin-2-yl)piperidin-4-yl)thiourea]
1000 to 25000 | CC(=O)c1ccnc(N2CCC(NC(=S)Nc3cccnc3)CC2)c1 [Example 76, 1-(1-(4-Acetylpyridin-2-yl)piperidin-4-yl)-3-(pyridin-3-yl)thiourea]
